Experiments:
cow hoof samples = assay: Three-point bend test (flexural strength) of cow hoof samples immersed 24 hours in test solution; conditions: for FS (flexural strength): 24 h immersion; for % Increase (flexural strength): only samples thinner than 1.8 mm
Procedure: 1. […] Pack samples in vacuum bag. 2. […] 3. […] Pack samples in vacuum bag. 4. Three-Point Bend Test for Untreated and Treated Cow Hoof Samples • Perform using a Texture Analyzer TAXT Plus from Texture Technologies. • Three point bend test is conducted until sample fracture. • Flexural strength is calculated based on force at break for each sample. Results A 3-point bend test set-up was used to measure the break force of treated and untreated cow hoof slices with thickness ranging from 0.88 mm to 2.75 mm. The flexural strength was calculated for each sample, based on sample thickness and width. For each group, the average flexural strength and the standard deviation were calculated. The p-value for the effect significance was calculated for each treated group versus the corresponding baseline value using ANOVA. Outliers were eliminated using the modified Thompson Tau method. Baseline values were determined for groups of untreated samples. Because the hypothesis is that the crosslinker reacts with thiol groups, the effect of dithiothreitol (DTT), a disulfide reducing agent, was tested as well.

[1] = Behaviour of the test solution at the highest concentration prepared; type: physicochemical; conditions: 3.5% (w/w) BMH in dimethyl sulfoxide

With `O=C(O)/C=C\C(=O)O` [Maleic Acid, maleic acid] the “FS (flexural strength)” value (cow hoof samples; 3.3% by weight maleic acid alone in ethanol (equ. to 5% H + M)) was 131 N/mm2, the “% increase (flexural strength vs baseline)” value (cow hoof samples; 3.3% maleic acid alone in ethanol (equ. to 5% H + M)) was 3.1% and the “Effect on flexural strength (in words)” value (cow hoof samples; MA taken separately) was “does not seem to have any significant effect”.

For `O[C@H](CS)[C@H](O)CS` (racemic) [DTT, dithiothreitol], the “Effect on flexural strength (in words)” value (cow hoof samples; disulfide reducing agent, results not shown) was “no significant effect”.

For `NCCCCCCN` [Hexamethylene diamine, hexamethylene diamine], the “FS (flexural strength)” value (cow hoof samples; 1% by weight hexamethylene diamine alone in ethanol (equal. to 3% H + M)) was 132 N/mm2, the “% increase (flexural strength vs baseline)” value (cow hoof samples; 1% hexamethylene diamine alone in ethanol (equal. to 3% H + M)) was 3.9% and the “FS (flexural strength)” value (cow hoof samples; 1.7% by weight hexamethylene diamine alone in ethanol (equal. to 5% H + M)) was 149 N/mm2. For the same compound, the “% increase (flexural strength vs baseline)” value (cow hoof samples; 1.7% hexamethylene diamine alone in ethanol (equal. to 5% H + M)) was 17.3%, the “FS (flexural strength)” value (cow hoof samples; 2.3% by weight hexamethylene diamine alone in ethanol (equal. to 7% H + M)) was 122 N/mm2 and the “% increase (flexural strength vs baseline)” value (cow hoof samples; 2.3% hexamethylene diamine alone in ethanol (equal. to 7% H + M)) was −3.9%. The “Effect on flexural strength (in words)” value (cow hoof samples; HMD taken separately at 1.7%) was “borderline significant strengthening effect”.

For `O=C1C=CC(=O)N1CCCCCCN1C(=O)C=CC1=O` [Bismaleimidohexane, bismaleimidohexane], the “Observation on the solution” value [1] was “Gelification”, the “Observation on the solution” value ([1]; listed as BMH) was “gelification” and the “% increase (flexural strength vs baseline)” value (cow hoof samples; 1% BMH in dimethyl sulfoxide) was 9.7%. The “FS (flexural strength)” value (cow hoof samples; 1% by weight BMH in dimethyl sulfoxide) was 158 N/mm2, the “% increase (flexural strength vs baseline)” value (cow hoof samples; 3% BMH in dimethyl sulfoxide) was 8.3% and the “FS (flexural strength)” value (cow hoof samples; 3% by weight BMH in dimethyl sulfoxide) was 156 N/mm2. For the same compound, the “Effect on flexural strength (in words)” value (cow hoof samples; BMH at 1% and 3%) was “non-significant increase”.

For “Hexamethylene diamine/Maleic acid [Hexamethylene diamine + Maleic acid]”, the “% increase (flexural strength vs baseline)” value (cow hoof samples; 1% HMD + MA in ethanol, all samples) was 13.4%, the “% Increase (flexural strength)” value (cow hoof samples; 1% HMD + MA) was 20.2% and the “FS (flexural strength)” value (cow hoof samples; 1% by weight HMD + MA (1:2) in ethanol, all samples) was 144 N/mm2. The “% increase (flexural strength vs baseline)” value (cow hoof samples; 3% HMD + MA in ethanol, all samples) was 17.3%, the “% Increase (flexural strength)” value (cow hoof samples; 3% HMD + MA) was 24.2% and the “FS (flexural strength)” value (cow hoof samples; 3% by weight HMD + MA (1:2) in ethanol, all samples) was 149 N/mm2. The “% increase (flexural strength vs baseline)” value (cow hoof samples; 5% HMD + MA in ethanol, all samples) was 17.3%, the “% Increase (flexural strength)” value (cow hoof samples; 5% HMD + MA) was 28.2% and the “FS (flexural strength)” value (cow hoof samples; 5% by weight HMD + MA (1:2) in ethanol, all samples) was 149 N/mm2. The “% increase (flexural strength vs baseline)” value (cow hoof samples; 7% HMD + MA in ethanol, all samples) was 3.9%, the “FS (flexural strength)” value (cow hoof samples; 7% by weight HMD + MA (1:2) in ethanol, all samples) was 132 N/mm2 and the “Effect on flexural strength (in words)” value (cow hoof samples; HMD + MA (1:2 ratio) at 3% and 5% (w/w)) was “significant increase”.

With `C=O` [Formaldehyde, formaldehyde] the “FS (flexural strength)” value (cow hoof samples; 1% by weight formaldehyde in ethanol, all samples) was 141 N/mm2, the “% increase (flexural strength vs baseline)” value (cow hoof samples; 1% formaldehyde in ethanol, all samples) was 20.5% and the “% Increase (flexural strength)” value (cow hoof samples; 1% formaldehyde) was 22.2%. The “FS (flexural strength)” value (cow hoof samples; 3% by weight formaldehyde in ethanol, all samples) was 132 N/mm2, the “% increase (flexural strength vs baseline)” value (cow hoof samples; 3% formaldehyde in ethanol, all samples) was 12.8% and the “% Increase (flexural strength)” value (cow hoof samples; 3% formaldehyde) was 15.4%. For the same compound, the “FS (flexural strength)” value (cow hoof samples; 5% by weight formaldehyde in ethanol, all samples) was 134 N/mm2, the “% increase (flexural strength vs baseline)” value (cow hoof samples; 5% formaldehyde in ethanol, all samples) was 14.5% and the “% Increase (flexural strength)” value (cow hoof samples; 5% formaldehyde) was 20.5%.

Source: patent publication US11628148B2, “Nail hardening composition and method of use” (WELLA OPERATIONS US, LLC, priority 2017, dated 2023)
